# Laboratory results: patent US20260070945A1, “MACROCYCLIC IMMUNOMODULATORS” (Bristol-Myers Squibb Company, priority 2022, published 2026)
# *1 amine or outer side, *2 acyl side, *3 side chain or, on linkers, in order; H or OH if unused. Where a SMILES comes first, the peptide text is derived from it. Bridges are numbered along the chain shown (N, C = ends). [ ]: non-standard residue; d: D form. The star is where a group is joined. ξ: configuration not given here. Phe(4-COOH) = N[C@@H](Cc1ccc(C(=O)O)cc1)C(=O)O; Bip = N[C@@H](Cc1ccc(-c2ccccc2)cc1)C(=O)O; Phe(3-Me) = Cc1cccc(C[C@H](N)C(=O)O)c1; NMeE = CN[C@@H](CCC(=O)O)C(=O)O; NMeQ = CN[C@@H](CCC(N)=O)C(=O)O; Cha = N[C@@H](CC1CCCCC1)C(=O)O; Cit = NC(=O)NCCC[C@H](N)C(=O)O; Thr(3ξ) = CC(O)[C@H](N)C(=O)O; CH2COCH2 = O=C(C[*:1])C[*:2]; Carboxymethyl = O=C(O)C*; NMeA = CN[C@@H](C)C(=O)O; Aun = NCCCCCCCCCCC(=O)O; Dab = NCC[C@H](N)C(=O)O; Sar = CNCC(=O)O
# Target: T1, PD-1/PD-L1 interaction (PE-labeled human PD-L1-Ig binding to Jurkat cell line over-expressing human PD-1) (Homo sapiens, UniProt Q15116)
# T1 construct: expressed in transfected cells; host or cells: Jurkat
# Test: Jurkat-PD-1 Cell Binding High-Content Screening Assay (CBA)
# Conditions: Jurkat-hPD-1 cells, PE-labeled PD-L1-Ig 20 nM final; read-out: Jurkat HPD1 PDL1 IC50
# How it was run: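 In this imaging assay, cells in 10% FCS medium see compound for 2 h at 37 °C and then labeled ligand at 20 nM final for 1 h. Paraformaldehyde fixation, Hoechst 33342 staining and dPBS washes precede image capture.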
# T1 sequence (Q15116 25-288): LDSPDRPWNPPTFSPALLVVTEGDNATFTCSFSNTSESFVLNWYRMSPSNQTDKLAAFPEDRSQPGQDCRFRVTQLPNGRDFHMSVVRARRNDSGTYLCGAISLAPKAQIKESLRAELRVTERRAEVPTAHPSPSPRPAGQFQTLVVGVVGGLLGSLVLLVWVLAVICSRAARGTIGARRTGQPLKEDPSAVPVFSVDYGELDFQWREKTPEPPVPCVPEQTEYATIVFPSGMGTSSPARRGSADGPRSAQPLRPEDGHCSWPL
row,Structure (SMILES),IC50
1,Cc1cccc(C[C@@H]2NC(=O)[C@H](CC(=O)O)NC(=O)[C@H](Cc3c[nH]cn3)NC(=O)[C@H](Cc3ccc(OCC(=O)O)cc3)NC(=O)CSC[C@@H](C(=O)NCCCCCCCCCCC(=O)O)NC(=O)[C@H](CO)NC(=O)[C@H](C(C)C)NC(=O)[C@H](CC3CCCCC3)NC(=O)[C@H](CCN)NC(=O)[C@@H](CC(C)C)NC(=O)[C@H](C)N(C)C(=O)[C@H](Cc3ccc(OCC(=O)O)cc3)NC(=O)[C@H](Cc3ccc(-c4ccccc4)cc3)NC(=O)[C@H](CC(C)C)NC2=O)c1 [Example 2252] ({CH2CO}-Y(Carboxymethyl)HD[Phe(3-Me)]L[Bip]Y(Carboxymethyl)[NMeA][dL][Dab][Cha]VSC[Aun]-OH; thioether N-14),127 nM
2,CC(=O)COc1ccc(C[C@@H]2NC(=O)[C@H](CCCNC(=N)N)NC(=O)CSC[C@@H](C(=O)N[C@@H](CCN)C(=O)NCCCCCCCCCCC(=O)O)NC(=O)[C@H](C(C)O)NC(=O)[C@H](C(C)C)NC(=O)[C@H](CC3CCCCC3)NC(=O)[C@H](CCN)NC(=O)[C@@H](CC(C)C)NC(=O)[C@H](C)N(C)C(=O)[C@H](Cc3ccc(OCC(=O)O)cc3)NC(=O)[C@H](Cc3ccc(-c4ccccc4)cc3)NC(=O)[C@H](CC(C)C)NC(=O)[C@H](Cc3cccc(C)c3)NC(=O)[C@H](CC(=O)O)NC2=O)cc1 (stereo partly drawn) [Example 2253] ({CH2CO}-RY(CH2COCH2)D[Phe(3-Me)]L[Bip]Y(Carboxymethyl)[NMeA][dL][Dab][Cha]V[Thr(3ξ)]C[Dab][Aun]-OH; thioether N-14),11.9 nM
3,Cc1cccc(C[C@@H]2NC(=O)[C@H](CC(=O)O)NC(=O)[C@H](Cc3ccc(C(=O)O)cc3)NC(=O)[C@H](Cc3ccc(OCC(=O)O)cc3)NC(=O)CSC[C@@H](C(=O)NCCCCCCCCCCC(=O)O)NC(=O)[C@H](CCC(=O)O)NC(=O)[C@H](C(C)C)NC(=O)[C@H](CC3CCCCC3)NC(=O)[C@H](CCN)NC(=O)[C@@H](CC(C)C)NC(=O)[C@H](C)N(C)C(=O)[C@H](Cc3ccc(O)cc3)NC(=O)[C@H](Cc3ccc(-c4ccccc4)cc3)NC(=O)[C@H](CC(C)C)NC2=O)c1 [Example 2254] ({CH2CO}-Y(Carboxymethyl)[Phe(4-COOH)]D[Phe(3-Me)]L[Bip]Y[NMeA][dL][Dab][Cha]VEC[Aun]-OH; thioether N-14),183 nM
4,Cc1cccc(C[C@@H]2NC(=O)[C@H](CC(=O)O)NC(=O)[C@H](Cc3ccc(OCC(=O)O)cc3)NC(=O)[C@H](Cc3ccc(OCC(=O)O)cc3)NC(=O)CSC[C@@H](C(=O)NCCCCCCCCCCC(=O)O)NC(=O)[C@H](CCC(=O)O)NC(=O)[C@H](C(C)C)NC(=O)[C@H](CC3CCCCC3)NC(=O)[C@H](CCN)NC(=O)[C@@H](CC(C)C)NC(=O)[C@H](CCC(N)=O)N(C)C(=O)[C@H](Cc3ccc(O)cc3)NC(=O)[C@H](Cc3ccc(-c4ccccc4)cc3)NC(=O)[C@H](Cc3ccc(O)cc3)NC2=O)c1 [Example 2255] ({CH2CO}-Y(Carboxymethyl)Y(Carboxymethyl)D[Phe(3-Me)]Y[Bip]Y[NMeQ][dL][Dab][Cha]VEC[Aun]-OH; thioether N-14),63.1 nM
5,Cc1cccc(C[C@@H]2NC(=O)[C@H](CC(=O)O)NC(=O)[C@H](Cc3ccc(OCC(=O)O)cc3)NC(=O)[C@H](Cc3ccc(OCC(=O)O)cc3)NC(=O)CSC[C@@H](C(=O)NCCCCCCCCCCC(=O)O)NC(=O)[C@H](CCC(=O)O)NC(=O)[C@H](C(C)C)NC(=O)[C@H](CC3CCCCC3)NC(=O)[C@H](CCN)NC(=O)[C@@H](CC(C)C)NC(=O)[C@H](CCC(=O)O)N(C)C(=O)[C@H](Cc3ccc(O)cc3)NC(=O)[C@H](Cc3ccc(-c4ccccc4)cc3)NC(=O)[C@H](Cc3ccc(O)cc3)NC2=O)c1 [Example 2256] ({CH2CO}-Y(Carboxymethyl)Y(Carboxymethyl)D[Phe(3-Me)]Y[Bip]Y[NMeE][dL][Dab][Cha]VEC[Aun]-OH; thioether N-14),98.8 nM
6,Cc1cccc(C[C@@H]2NC(=O)[C@H](CC(=O)O)NC(=O)[C@H](Cc3cnc[nH]3)NC(=O)[C@H](Cc3ccc(OCC(=O)O)cc3)NC(=O)CSC[C@@H](C(=O)NCCCCCCCCCCC(=O)O)NC(=O)[C@H](CCCNC(N)=O)NC(=O)[C@H](C(C)C)NC(=O)[C@H](CC3CCCCC3)NC(=O)[C@H](CCN)NC(=O)[C@@H](CC(C)C)NC(=O)[C@H](C)N(C)C(=O)[C@H](Cc3ccc(O)cc3)NC(=O)[C@H](Cc3ccc(-c4ccccc4)cc3)NC(=O)[C@H](CCC(N)=O)NC2=O)c1 [Example 2257] ({CH2CO}-Y(Carboxymethyl)HD[Phe(3-Me)]Q[Bip]Y[NMeA][dL][Dab][Cha]V[Cit]C[Aun]-OH; thioether N-14),199 nM
7,Cc1cccc(C[C@@H]2NC(=O)[C@H](CC(=O)O)NC(=O)[C@H](Cc3cnc[nH]3)NC(=O)[C@H](Cc3ccc(OCC(=O)O)cc3)NC(=O)CSC[C@@H](C(=O)NCCCCCCCCCCC(=O)O)NC(=O)[C@H](CCC(=O)O)NC(=O)[C@H](C(C)C)NC(=O)[C@H](CC3CCCCC3)NC(=O)[C@H](CCN)NC(=O)[C@@H](CC(C)C)NC(=O)[C@H](C)N(C)C(=O)[C@H](Cc3ccc(O)cc3)NC(=O)[C@H](Cc3ccc(-c4ccccc4)cc3)NC(=O)[C@H](CCC(N)=O)NC2=O)c1 [Example 2258] ({CH2CO}-Y(Carboxymethyl)HD[Phe(3-Me)]Q[Bip]Y[NMeA][dL][Dab][Cha]VEC[Aun]-OH; thioether N-14),765 nM
8,Cc1cccc(C[C@@H]2NC(=O)[C@H](CC(=O)O)NC(=O)[C@H](Cc3ccc(OCC(=O)O)cc3)NC(=O)[C@H](C(C)O)NC(=O)CSC[C@@H](C(=O)N(C)CC(=O)NCCCCCCCCCCC(=O)O)NC(=O)[C@H](CCCNC(N)=O)NC(=O)[C@H](C(C)C)NC(=O)[C@H](CC3CCCCC3)NC(=O)[C@H](CCN)NC(=O)[C@@H](CC(C)C)NC(=O)[C@H](C)N(C)C(=O)[C@H](C(C)C)NC(=O)[C@H](Cc3ccc(-c4ccccc4)cc3)NC(=O)[C@H](C(C)C)NC2=O)c1 (stereo partly drawn) [Example 2259] ({CH2CO}-[Thr(3ξ)]Y(Carboxymethyl)D[Phe(3-Me)]V[Bip]V[NMeA][dL][Dab][Cha]V[Cit]C[Sar][Aun]-OH; thioether N-14),11.4 nM
9,Cc1cccc(C[C@@H]2NC(=O)[C@H](CC(=O)O)NC(=O)[C@H](Cc3ccc(OCC(=O)O)cc3)NC(=O)[C@H](CCCNC(=N)N)NC(=O)CSC[C@@H](C(=O)N(C)CC(=O)NCCCCCCCCCCC(=O)O)NC(=O)[C@H](CCCNC(N)=O)NC(=O)[C@H](C(C)C)NC(=O)[C@H](CC3CCCCC3)NC(=O)[C@H](CCN)NC(=O)[C@@H](CC(C)C)NC(=O)[C@H](C)N(C)C(=O)[C@H](C(C)C)NC(=O)[C@H](Cc3ccc(-c4ccccc4)cc3)NC(=O)[C@H](C(C)C)NC2=O)c1 [Example 2260] ({CH2CO}-RY(Carboxymethyl)D[Phe(3-Me)]V[Bip]V[NMeA][dL][Dab][Cha]V[Cit]C[Sar][Aun]-OH; thioether N-14),28.5 nM
10,Cc1cccc(C[C@@H]2NC(=O)[C@H](CC(=O)O)NC(=O)[C@H](Cc3ccc(OCC(=O)O)cc3)NC(=O)[C@H](CC(N)=O)NC(=O)CSC[C@@H](C(=O)N(C)CC(=O)NCCCCCCCCCCC(=O)O)NC(=O)[C@H](CCCNC(N)=O)NC(=O)[C@H](C(C)C)NC(=O)[C@H](CC3CCCCC3)NC(=O)[C@H](CCN)NC(=O)[C@@H](CC(C)C)NC(=O)[C@H](C)N(C)C(=O)[C@H](C(C)C)NC(=O)[C@H](Cc3ccc(-c4ccccc4)cc3)NC(=O)[C@H](C(C)C)NC2=O)c1 [Example 2261] ({CH2CO}-NY(Carboxymethyl)D[Phe(3-Me)]V[Bip]V[NMeA][dL][Dab][Cha]V[Cit]C[Sar][Aun]-OH; thioether N-14),25.8 nM
11,Cc1cccc(C[C@@H]2NC(=O)[C@H](CC(=O)O)NC(=O)[C@H](Cc3ccc(OCC(=O)O)cc3)NC(=O)[C@H](C(C)O)NC(=O)CSC[C@@H](C(=O)N(C)CC(=O)NCCCCCCCCCCC(=O)O)NC(=O)[C@H](C(C)O)NC(=O)[C@H](C(C)C)NC(=O)[C@H](CC3CCCCC3)NC(=O)[C@H](CCN)NC(=O)[C@@H](CC(C)C)NC(=O)[C@H](C)N(C)C(=O)[C@H](C(C)C)NC(=O)[C@H](Cc3ccc(-c4ccccc4)cc3)NC(=O)[C@H](Cc3ccc(O)cc3)NC2=O)c1 (stereo partly drawn) [Example 2262] ({CH2CO}-[Thr(3ξ)]Y(Carboxymethyl)D[Phe(3-Me)]Y[Bip]V[NMeA][dL][Dab][Cha]V[Thr(3ξ)]C[Sar][Aun]-OH; thioether N-14),154 nM
12,Cc1cccc(C[C@@H]2NC(=O)[C@H](CC(=O)O)NC(=O)[C@H](Cc3ccc(OCC(=O)O)cc3)NC(=O)[C@H](C(C)O)NC(=O)CSC[C@@H](C(=O)N(C)CC(=O)NCCCCCCCCCCC(=O)O)NC(=O)[C@H](CCC(=O)O)NC(=O)[C@H](C(C)C)NC(=O)[C@H](CC3CCCCC3)NC(=O)[C@H](CCN)NC(=O)[C@@H](CC(C)C)NC(=O)[C@H](C)N(C)C(=O)[C@H](C(C)C)NC(=O)[C@H](Cc3ccc(-c4ccccc4)cc3)NC(=O)[C@H](Cc3ccc(O)cc3)NC2=O)c1 (stereo partly drawn) [Example 2263] ({CH2CO}-[Thr(3ξ)]Y(Carboxymethyl)D[Phe(3-Me)]Y[Bip]V[NMeA][dL][Dab][Cha]VEC[Sar][Aun]-OH; thioether N-14),334 nM
13,Cc1cccc(C[C@@H]2NC(=O)[C@H](CC(=O)O)NC(=O)[C@H](Cc3ccc(OCC(=O)O)cc3)NC(=O)[C@H](C(C)O)NC(=O)CSC[C@@H](C(=O)N(C)CC(=O)NCCCCCCCCCCC(=O)O)NC(=O)[C@H](CCC(N)=O)NC(=O)[C@H](C(C)C)NC(=O)[C@H](CC3CCCCC3)NC(=O)[C@H](CCN)NC(=O)[C@@H](CC(C)C)NC(=O)[C@H](C)N(C)C(=O)[C@H](C(C)C)NC(=O)[C@H](Cc3ccc(-c4ccccc4)cc3)NC(=O)[C@H](Cc3ccc(O)cc3)NC2=O)c1 (stereo partly drawn) [Example 2265] ({CH2CO}-[Thr(3ξ)]Y(Carboxymethyl)D[Phe(3-Me)]Y[Bip]V[NMeA][dL][Dab][Cha]VQC[Sar][Aun]-OH; thioether N-14),427 nM
